Results from ChEMBL document CHEMBL5500384, “New synergistic benzoquinone scaffolds as inhibitors of mycobacterial cytochrome bc1 complex to treat multi-drug resistant tuberculosis” (Eur J Med Chem, 2024).

What was measured:
[1] = Acute toxicity in Albino mouse assessed as mortality at 50 mg/kg, po after 14 days; assay type: organism-based; conditions: in vivo, 336 h, time 14 day
[2] = Acute toxicity in po dosed Albino mouse assessed as mortality after 14 days; assay type: organism-based; conditions: in vivo, time 14 day
[3] = Acute toxicity in Albino mouse assessed as mortality at 300 mg/kg, po after 5 to 8 hrs; assay type: organism-based; conditions: in vivo, time 5-8 hrs
[4] = test system: Mycobacterium tuberculosis; assay: Antitubercular activity against Mycobacterium tuberculosis H37Rv assessed as effect on nucleoid morphology at 12.5 ug/ml by fluorescence microscopy analysis; assay type: functional; conditions: dose 12.5 µg/ml
[5] = test system: Mycobacterium tuberculosis; assay: Antitubercular activity against Mycobacterium tuberculosis H37Rv assessed as effect on nucleoid morphology at 6.25 ug/ml by fluorescence microscopy analysis; assay type: functional; conditions: dose 6.25 µg/ml
[6] = Acute toxicity in Albino mouse assessed as mortality at 300 mg/kg, po after 14 days; assay type: organism-based; conditions: in vivo, 336 h, time 14 day

SMILES	Activity [1]	LD50 at 336 h [2] [mg/kg]	Activity [3]	Activity [4] [%]	Activity [5] [%]	Activity [6]
COc1ccc(C2C(Cl)C(=O)N2C2=C(Cl)C(=O)c3ccccc3C2=O)cc1 (configuration not stated)	Non-Toxic	50	Toxic	99		
CN(C)c1ccc(C2C(Cl)C(=O)N2C2=C(Cl)C(=O)c3ccccc3C2=O)cc1 (configuration not stated)		300			99	Non-Toxic
